Laboratory results from ChEMBL document CHEMBL5058643, “Data for DCP probe BI-2081” (2022).
Active and inactive are the calls of the source. The rule behind the calls is not given here.

Experiments:
[1] = target: Beta-1 adrenergic receptor (Homo sapiens) (UniProt P08588); settings: Compound concentration 10.0 uM
[2] = target: Acetylcholine receptor subunit alpha (Homo sapiens) (UniProt P02708); test: NACH/H Eurofins SafetyScreen44 (BI); settings: Compound concentration 10.0 uM
[3] = target: T1, Muscarinic acetylcholine receptor M2 (Homo sapiens) (UniProt P08172); test: M2/HU Eurofins SafetyScreen44 (BI); settings: Compound concentration 10.0 uM
T1 sequence (whole entry): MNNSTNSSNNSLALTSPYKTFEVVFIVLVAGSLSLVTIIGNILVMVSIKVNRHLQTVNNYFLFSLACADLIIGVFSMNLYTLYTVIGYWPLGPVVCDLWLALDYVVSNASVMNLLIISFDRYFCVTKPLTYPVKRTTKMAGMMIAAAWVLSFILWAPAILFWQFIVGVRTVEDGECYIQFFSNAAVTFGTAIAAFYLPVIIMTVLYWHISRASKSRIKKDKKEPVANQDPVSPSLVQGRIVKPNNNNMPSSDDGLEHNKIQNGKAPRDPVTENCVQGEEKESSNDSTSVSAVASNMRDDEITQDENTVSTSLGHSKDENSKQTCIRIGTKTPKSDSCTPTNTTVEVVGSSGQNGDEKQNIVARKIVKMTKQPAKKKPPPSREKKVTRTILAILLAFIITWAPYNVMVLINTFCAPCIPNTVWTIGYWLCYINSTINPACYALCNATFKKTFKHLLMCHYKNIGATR

[4] = target: Free fatty acid receptor 1 (Homo sapiens, UniProt O14842); test: IPOne assay
[5] = target: Interleukin-1 beta (Mus musculus) (UniProt P10749); test: IL-1 Eurofins SafetyScreen44 (BI); settings: Compound concentration 10.0 uM
[6] = target: T2, Muscarinic acetylcholine receptor M1 (Homo sapiens) (UniProt P11229); test: M1/HU Eurofins SafetyScreen44 (BI); settings: Compound concentration 10.0 uM
T2 sequence (whole entry): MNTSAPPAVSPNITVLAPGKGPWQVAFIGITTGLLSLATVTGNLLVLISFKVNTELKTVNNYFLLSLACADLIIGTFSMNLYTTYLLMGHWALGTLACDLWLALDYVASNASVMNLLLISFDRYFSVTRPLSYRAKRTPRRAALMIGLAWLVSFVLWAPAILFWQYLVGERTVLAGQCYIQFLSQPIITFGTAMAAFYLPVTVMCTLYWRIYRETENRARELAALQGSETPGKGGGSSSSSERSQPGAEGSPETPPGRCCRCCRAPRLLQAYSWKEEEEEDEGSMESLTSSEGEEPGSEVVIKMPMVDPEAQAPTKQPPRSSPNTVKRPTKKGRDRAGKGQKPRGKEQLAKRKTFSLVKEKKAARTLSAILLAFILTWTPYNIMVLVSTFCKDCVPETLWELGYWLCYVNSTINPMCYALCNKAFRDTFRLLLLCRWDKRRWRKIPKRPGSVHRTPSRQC

[7] = target: T3, Alpha-1A adrenergic receptor (Homo sapiens) (UniProt P35348); settings: Compound concentration 10.0 uM
T3 sequence (whole entry): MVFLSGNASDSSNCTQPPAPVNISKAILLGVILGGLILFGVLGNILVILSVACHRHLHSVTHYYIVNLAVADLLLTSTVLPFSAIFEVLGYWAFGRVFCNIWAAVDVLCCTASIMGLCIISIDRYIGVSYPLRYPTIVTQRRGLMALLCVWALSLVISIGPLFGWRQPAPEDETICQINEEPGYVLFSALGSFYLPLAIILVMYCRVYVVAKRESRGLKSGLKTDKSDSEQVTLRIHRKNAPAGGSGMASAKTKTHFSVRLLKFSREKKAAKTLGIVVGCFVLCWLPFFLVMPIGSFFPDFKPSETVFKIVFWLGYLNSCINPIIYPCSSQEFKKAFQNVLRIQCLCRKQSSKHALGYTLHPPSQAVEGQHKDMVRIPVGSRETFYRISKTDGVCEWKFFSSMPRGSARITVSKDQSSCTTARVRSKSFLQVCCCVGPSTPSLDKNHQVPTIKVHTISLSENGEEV

[8] = target: Voltage-dependent N-type calcium channel subunit alpha-1B (Rattus norvegicus) (UniProt Q02294); test: CA+/N/RA Eurofins SafetyScreen44 (BI); settings: Compound concentration 10.0 uM
[9] = target: Histamine H2 receptor (Homo sapiens) (UniProt P25021); test: H2/H Eurofins SafetyScreen44 (BI); settings: Compound concentration 10.0 uM
[10] = target: T4, 5-hydroxytryptamine receptor 1A (Homo sapiens) (UniProt P08908); test: 5HT1A/HU Eurofins SafetyScreen44 (BI); settings: Compound concentration 10.0 uM
T4 sequence (whole entry): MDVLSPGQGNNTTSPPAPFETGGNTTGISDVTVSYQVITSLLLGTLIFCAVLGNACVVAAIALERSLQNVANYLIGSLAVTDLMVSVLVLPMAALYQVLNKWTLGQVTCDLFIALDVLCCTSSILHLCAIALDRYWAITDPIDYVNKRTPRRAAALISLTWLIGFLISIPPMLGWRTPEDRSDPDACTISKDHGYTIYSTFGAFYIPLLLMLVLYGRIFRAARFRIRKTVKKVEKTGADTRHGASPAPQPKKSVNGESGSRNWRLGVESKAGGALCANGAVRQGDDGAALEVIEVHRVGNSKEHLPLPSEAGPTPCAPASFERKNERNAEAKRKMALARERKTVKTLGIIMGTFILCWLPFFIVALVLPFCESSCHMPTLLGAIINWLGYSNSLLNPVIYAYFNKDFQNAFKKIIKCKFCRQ

[11] = target: Sodium-dependent dopamine transporter (Homo sapiens) (UniProt Q01959); test: DATRANS/H Eurofins SafetyScreen44 (BI); settings: Compound concentration 10.0 uM
[12] = target: Adenosine receptor A1 (Homo sapiens) (UniProt P30542); test: A1/HU Eurofins SafetyScreen44 (BI); settings: Compound concentration 10.0 uM
[13] = target: Beta-2 adrenergic receptor (Homo sapiens) (UniProt P07550); settings: Compound concentration 10.0 uM
[14] = target: Angiotensin-converting enzyme (Homo sapiens) (UniProt P12821); test: ACE(HU_AMTCH400) Eurofins SafetyScreen44 (BI); settings: Compound concentration 10.0 uM
[15] = target: Prostaglandin G/H synthase 2 (Homo sapiens) (UniProt P35354); test: COX-2 Eurofins SafetyScreen44 (BI); settings: Compound concentration 10.0 uM
[16] = target: D(1A) dopamine receptor (Homo sapiens) (UniProt P21728); test: D1/H Eurofins SafetyScreen44 (BI); settings: filed as antagonist, Compound concentration 10.0 uM
[17] = target: Cannabinoid receptor 2 (Homo sapiens) (UniProt P34972); test: CB2/PERIPH/H Eurofins SafetyScreen44 (BI); settings: Compound concentration 10.0 uM
[18] = target: T3, Alpha-1A adrenergic receptor (Homo sapiens); test: ALPHA1AH_ANTAG Eurofins SafetyScreen44 (BI); settings: filed as antagonist, Compound concentration 10.0 uM
[19] = target: Histamine H1 receptor (Homo sapiens) (UniProt P35367); test: H1/PYRIL/HS Eurofins SafetyScreen44 (BI); settings: Compound concentration 10.0 uM
[20] = target: Mu-type opioid receptor (Homo sapiens) (UniProt P35372); test: MU/H Eurofins SafetyScreen44 (BI); settings: Compound concentration 10.0 uM
[21] = target: Endothelin-1 receptor (Homo sapiens) (UniProt P25101); test: ETA/H Eurofins SafetyScreen44 (BI); settings: Compound concentration 10.0 uM
[22] = target: T1, Muscarinic acetylcholine receptor M2 (Homo sapiens); test: M2/H Eurofins SafetyScreen44 (BI); settings: filed as antagonist, Compound concentration 10.0 uM

Sequence of Beta-1 adrenergic receptor (Homo sapiens) (P08588 whole entry, looked up): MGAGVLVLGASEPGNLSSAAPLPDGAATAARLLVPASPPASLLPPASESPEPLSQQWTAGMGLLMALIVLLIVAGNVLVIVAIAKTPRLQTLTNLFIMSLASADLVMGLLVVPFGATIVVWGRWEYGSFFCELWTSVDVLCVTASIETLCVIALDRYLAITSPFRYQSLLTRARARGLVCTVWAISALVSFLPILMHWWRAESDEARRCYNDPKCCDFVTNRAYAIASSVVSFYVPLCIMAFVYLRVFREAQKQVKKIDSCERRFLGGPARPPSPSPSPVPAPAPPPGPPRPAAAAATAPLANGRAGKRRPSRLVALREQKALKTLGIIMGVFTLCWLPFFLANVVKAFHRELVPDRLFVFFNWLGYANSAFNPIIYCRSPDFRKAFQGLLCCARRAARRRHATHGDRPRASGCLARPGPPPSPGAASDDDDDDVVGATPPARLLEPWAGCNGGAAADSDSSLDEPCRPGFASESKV
Sequence of Beta-2 adrenergic receptor (Homo sapiens) (P07550 whole entry, looked up): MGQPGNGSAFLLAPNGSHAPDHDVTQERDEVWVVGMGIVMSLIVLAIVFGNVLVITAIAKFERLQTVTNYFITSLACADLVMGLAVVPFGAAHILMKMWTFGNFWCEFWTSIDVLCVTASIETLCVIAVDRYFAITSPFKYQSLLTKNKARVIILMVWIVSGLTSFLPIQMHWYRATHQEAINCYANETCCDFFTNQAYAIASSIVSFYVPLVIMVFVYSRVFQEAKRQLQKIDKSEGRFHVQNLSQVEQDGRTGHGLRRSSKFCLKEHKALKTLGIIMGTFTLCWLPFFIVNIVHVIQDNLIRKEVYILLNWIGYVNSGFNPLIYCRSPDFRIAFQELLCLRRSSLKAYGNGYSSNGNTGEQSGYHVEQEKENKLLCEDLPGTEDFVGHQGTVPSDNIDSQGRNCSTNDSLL
Sequence of Voltage-dependent N-type calcium channel subunit alpha-1B (Rattus norvegicus) (Q02294 whole entry, looked up): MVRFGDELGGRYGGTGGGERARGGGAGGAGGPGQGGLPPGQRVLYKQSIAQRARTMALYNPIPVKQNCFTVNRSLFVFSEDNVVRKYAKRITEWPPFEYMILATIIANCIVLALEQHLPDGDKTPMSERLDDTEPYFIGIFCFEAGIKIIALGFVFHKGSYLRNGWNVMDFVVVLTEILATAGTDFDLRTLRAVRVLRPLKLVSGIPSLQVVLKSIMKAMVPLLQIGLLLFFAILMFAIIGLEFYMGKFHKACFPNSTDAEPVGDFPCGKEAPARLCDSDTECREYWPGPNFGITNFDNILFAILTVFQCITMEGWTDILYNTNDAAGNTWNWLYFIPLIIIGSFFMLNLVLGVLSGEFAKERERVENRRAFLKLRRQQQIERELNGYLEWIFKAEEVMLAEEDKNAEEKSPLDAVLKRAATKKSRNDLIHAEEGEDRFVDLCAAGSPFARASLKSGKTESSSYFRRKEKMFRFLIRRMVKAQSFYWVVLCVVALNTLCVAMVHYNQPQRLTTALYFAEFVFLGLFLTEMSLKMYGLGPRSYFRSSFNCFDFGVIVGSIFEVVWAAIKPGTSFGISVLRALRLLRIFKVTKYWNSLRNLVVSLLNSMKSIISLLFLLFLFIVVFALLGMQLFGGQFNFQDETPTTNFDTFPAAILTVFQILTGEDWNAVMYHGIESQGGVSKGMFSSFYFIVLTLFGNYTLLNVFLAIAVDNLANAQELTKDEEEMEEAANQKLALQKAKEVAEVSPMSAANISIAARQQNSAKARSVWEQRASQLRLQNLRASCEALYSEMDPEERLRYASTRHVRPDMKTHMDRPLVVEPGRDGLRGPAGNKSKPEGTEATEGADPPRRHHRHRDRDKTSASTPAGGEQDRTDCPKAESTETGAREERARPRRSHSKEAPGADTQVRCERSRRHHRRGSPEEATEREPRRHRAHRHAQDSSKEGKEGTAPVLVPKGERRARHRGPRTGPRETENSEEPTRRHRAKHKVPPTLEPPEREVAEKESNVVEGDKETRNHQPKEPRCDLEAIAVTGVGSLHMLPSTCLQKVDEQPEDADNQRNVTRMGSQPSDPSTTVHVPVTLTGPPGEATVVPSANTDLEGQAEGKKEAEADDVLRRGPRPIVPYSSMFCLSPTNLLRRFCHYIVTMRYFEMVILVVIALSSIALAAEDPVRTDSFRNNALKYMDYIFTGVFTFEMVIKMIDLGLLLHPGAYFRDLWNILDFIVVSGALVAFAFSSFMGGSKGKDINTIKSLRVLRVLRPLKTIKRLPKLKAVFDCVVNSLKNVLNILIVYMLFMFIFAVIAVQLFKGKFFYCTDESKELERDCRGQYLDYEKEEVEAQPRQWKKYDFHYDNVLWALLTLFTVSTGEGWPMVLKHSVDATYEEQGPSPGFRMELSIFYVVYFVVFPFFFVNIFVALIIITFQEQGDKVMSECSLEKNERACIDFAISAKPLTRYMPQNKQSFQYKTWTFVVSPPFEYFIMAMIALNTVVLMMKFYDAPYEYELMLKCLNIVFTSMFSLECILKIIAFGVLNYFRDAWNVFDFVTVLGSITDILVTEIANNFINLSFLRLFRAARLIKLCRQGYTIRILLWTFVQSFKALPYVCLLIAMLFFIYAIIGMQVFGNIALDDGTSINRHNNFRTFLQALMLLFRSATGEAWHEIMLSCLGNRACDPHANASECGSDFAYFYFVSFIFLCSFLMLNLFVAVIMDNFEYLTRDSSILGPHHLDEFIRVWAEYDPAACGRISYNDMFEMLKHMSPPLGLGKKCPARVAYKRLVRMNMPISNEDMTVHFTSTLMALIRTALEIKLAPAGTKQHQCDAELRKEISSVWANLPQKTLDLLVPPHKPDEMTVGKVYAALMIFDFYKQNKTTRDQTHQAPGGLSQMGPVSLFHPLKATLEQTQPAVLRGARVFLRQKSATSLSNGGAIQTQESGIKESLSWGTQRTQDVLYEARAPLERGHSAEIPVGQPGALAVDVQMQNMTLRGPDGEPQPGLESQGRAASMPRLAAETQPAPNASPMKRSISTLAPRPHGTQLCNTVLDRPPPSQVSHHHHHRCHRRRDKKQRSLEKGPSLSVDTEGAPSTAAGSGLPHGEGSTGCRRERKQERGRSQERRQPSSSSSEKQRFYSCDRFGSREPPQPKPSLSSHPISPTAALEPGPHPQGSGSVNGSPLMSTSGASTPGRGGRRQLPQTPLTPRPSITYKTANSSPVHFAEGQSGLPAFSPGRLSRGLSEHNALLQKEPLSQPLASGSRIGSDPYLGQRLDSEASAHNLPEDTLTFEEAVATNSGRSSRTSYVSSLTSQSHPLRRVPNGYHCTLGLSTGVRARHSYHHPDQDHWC
Sequence of D(1A) dopamine receptor (Homo sapiens) (P21728 whole entry): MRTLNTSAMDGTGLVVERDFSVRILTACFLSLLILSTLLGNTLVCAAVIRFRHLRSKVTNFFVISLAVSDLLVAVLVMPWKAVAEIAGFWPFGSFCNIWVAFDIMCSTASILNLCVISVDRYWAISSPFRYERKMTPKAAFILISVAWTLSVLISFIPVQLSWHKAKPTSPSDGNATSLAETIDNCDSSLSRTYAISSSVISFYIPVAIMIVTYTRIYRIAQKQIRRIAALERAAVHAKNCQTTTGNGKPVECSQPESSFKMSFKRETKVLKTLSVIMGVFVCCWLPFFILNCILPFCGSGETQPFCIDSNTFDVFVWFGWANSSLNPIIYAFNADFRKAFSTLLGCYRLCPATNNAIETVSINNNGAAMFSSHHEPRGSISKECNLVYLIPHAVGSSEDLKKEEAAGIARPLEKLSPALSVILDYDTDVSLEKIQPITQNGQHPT
Sequence of Histamine H2 receptor (Homo sapiens) (P25021 whole entry): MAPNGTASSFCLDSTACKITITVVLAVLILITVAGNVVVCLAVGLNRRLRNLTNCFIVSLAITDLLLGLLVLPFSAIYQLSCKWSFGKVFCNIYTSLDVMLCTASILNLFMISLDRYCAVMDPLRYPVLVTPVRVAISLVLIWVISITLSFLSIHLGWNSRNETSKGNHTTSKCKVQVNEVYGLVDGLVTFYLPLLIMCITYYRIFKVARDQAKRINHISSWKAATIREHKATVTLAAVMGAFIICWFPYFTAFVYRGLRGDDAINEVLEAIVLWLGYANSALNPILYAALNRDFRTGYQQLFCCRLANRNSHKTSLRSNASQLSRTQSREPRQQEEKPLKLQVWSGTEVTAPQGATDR
Sequence of Histamine H1 receptor (Homo sapiens) (P35367 whole entry): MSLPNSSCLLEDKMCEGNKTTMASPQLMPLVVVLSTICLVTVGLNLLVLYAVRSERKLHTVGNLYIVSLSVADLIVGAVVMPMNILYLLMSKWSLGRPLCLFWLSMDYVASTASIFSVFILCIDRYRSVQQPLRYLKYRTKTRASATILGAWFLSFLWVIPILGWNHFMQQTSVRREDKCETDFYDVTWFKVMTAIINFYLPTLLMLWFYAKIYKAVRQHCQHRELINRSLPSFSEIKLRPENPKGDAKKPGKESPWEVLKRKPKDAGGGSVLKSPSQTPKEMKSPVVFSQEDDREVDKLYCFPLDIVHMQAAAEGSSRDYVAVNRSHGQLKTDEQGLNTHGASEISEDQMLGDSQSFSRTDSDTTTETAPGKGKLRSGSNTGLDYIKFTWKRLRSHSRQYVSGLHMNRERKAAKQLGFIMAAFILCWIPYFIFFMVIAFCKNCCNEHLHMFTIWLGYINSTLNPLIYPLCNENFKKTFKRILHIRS
Sequence of Acetylcholine receptor subunit alpha (Homo sapiens) (P02708 whole entry): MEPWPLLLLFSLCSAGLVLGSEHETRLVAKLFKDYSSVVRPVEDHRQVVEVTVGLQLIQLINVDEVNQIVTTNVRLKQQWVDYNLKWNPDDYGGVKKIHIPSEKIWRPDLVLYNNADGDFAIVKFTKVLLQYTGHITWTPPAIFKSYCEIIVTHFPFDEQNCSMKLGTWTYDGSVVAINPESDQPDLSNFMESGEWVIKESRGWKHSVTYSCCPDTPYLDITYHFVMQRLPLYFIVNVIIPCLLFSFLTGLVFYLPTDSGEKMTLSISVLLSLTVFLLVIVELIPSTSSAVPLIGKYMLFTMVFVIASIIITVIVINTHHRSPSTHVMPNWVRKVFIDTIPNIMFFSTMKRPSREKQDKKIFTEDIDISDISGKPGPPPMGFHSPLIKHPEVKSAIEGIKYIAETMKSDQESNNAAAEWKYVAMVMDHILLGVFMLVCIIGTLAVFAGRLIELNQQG

In the case of `Cc1cc(OCCC(C)(C)O)cc(C)c1-c1ccc(F)c2c1CC[C@H]2Oc1ccc2c(c1)OC[C@H]2CC(=O)O`, the inhibition [1] is reported as 4.62%, the residual activity [2] is reported as 115% and the residual activity [3] is reported as 92%. For the same molecule, the EC50 [4] was 3 nM (active), the residual activity [5] was 100% and the residual activity [6] was 83%. The inhibition [7] was -8.92%, the residual activity [8] was 113% and the residual activity [9] was 95%. It also gave a residual activity [10] of 118%, a residual activity [11] of 68% and a residual activity [12] of 68%.
Work on `COCCCS(=O)(=O)c1cc(C)c(-c2ccc(F)c3c2CC[C@H]3Oc2ccc3c(c2)OC[C@H]3CC(=O)O)c(C)c1` yielded an inhibition [13] of 2.56%, a residual activity [14] of 99% and a residual activity [15] of 81%. It also gave a residual activity [16] of 87%, a residual activity [17] of 115% and a residual activity [18] of 95%. It also gave a residual activity [19] of 87%, a residual activity [20] of 75% and a residual activity [21] of 56%. It also gave a residual activity [22] of 112%.
